Measurements taken from ChEMBL document CHEMBL3507680, “University of Dundee, Gates Library screen for HepG2 cell viability”.

assay: Human HepG2 cell viability assay in 384 well format; type: toxicity, cell-based; parameters: dose 125 nL, time 70.5 hour; cytotoxicity at 70.5 h: concentration not given beside the values; details: HepG2 cells, read-out: Inhibition

Row | SMILES | cytotoxicity at 70.5 h
1 | O=C(Cn1cc(-c2ccccc2)ncc1=O)Nc1nccs1 | 7.52%
2 | CC(=O)c1cccc(OCCCC(=O)N(C)CCc2ccncc2)c1 | -10.1%
3 | c1ccc(CO[C@H]2CC[C@H]3[C@H]2OCCN3Cc2nccs2)nc1 | 1.15%
4 | Cc1cccc(CN2CCC3(CCN(c4ncccn4)CC3)C2=O)c1 | 1.2%
5 | O=C(NCc1nncn1C1CC1)C1(c2ccc(F)cc2)CCCC1 | 14.3%
6 | CCC(Nc1nc(C)nc2onc(C)c12)c1cccs1 (stereo not drawn) | -2.98%
7 | c1ccc(O[C@@H]2CN(Cc3nccs3)[C@@H]3CCCO[C@@H]32)nc1 | 1.57%
8 | c1cnc(N2CC[C@@H](N3CCOCC3)[C@@H]2Cc2ccncc2)nc1 | 11.8%
9 | COCc1ccccc1C(=O)N1CCN(C2=NCC(C)(C)S2)CC1 | -5.17%
10 | Cc1ccc(C(=O)N(C)Cc2cscn2)c(=O)[nH]1 | -12.9%
11 | Cc1ncsc1CCN(C)Cc1ccc(Br)o1 | 9.94%
12 | CS(=O)(=O)N1CC(=O)N(CCCc2ccccc2)CC(O)C1 (stereo not drawn) | -8.69%
13 | CN(C)C(C(=O)N1CCN(CCn2cccc2)CC1)c1ccc(F)cc1 (stereo not drawn) | -3.42%
14 | Cc1cc(C(=O)N2CCC(CCn3cccn3)CC2)c(C)o1 | -5.22%
15 | CCc1ncc(C(=O)N2CC(N3CCCCC3)C2)cn1 | 25.6%
16 | COc1c(C2CCCN2C(=O)c2cccc(C)n2)c(C)nn1C (stereo not drawn) | -16.2%
17 | CCCC(C(=O)NC1CCN(S(C)(=O)=O)CC1)n1cccc1 (stereo not drawn) | -3.64%
18 | CCc1nc(CN(C)C2CCN(CCCOc3ccccc3)C2)no1 (stereo not drawn) | 9.63%
19 | O=C(c1ccc(Cl)cc1)N1CCn2c(nn(-c3ccc(Cl)cc3)c2=O)C1 | -1.63%
20 | Cc1ccc(CN(C)C)cc1NC(=O)C1CC=CC1 | -3.31%
21 | O=C(NCCCn1cncn1)N1CCCC(N2CCCC2)C1 (stereo not drawn) | -4.6%
22 | CN(C)Cc1cccc(-c2cccnc2C(=O)NCc2ccccn2)c1 | -3.29%
23 | O=S(=O)(NCCN1CC=CC1)c1ccc(Cl)cc1 | -6.79%

Row | SMILES | cytotoxicity at 70.5 h
24 | CN(C)C(=O)NC1COC2(CCN(Cc3ccco3)CC2)C1 (stereo not drawn) | -12.8%
25 | CC(C)Oc1ccc(-c2csc(Cn3ccc(=O)[nH]c3=O)n2)cc1 | -0.0528%
26 | CCc1cc(OC)c(OC)cc1C(=O)Nc1cccnc1 | 13%
27 | CS(=O)(=O)NC[C@H]1OC[C@@H]2CCN(Cc3ccc(F)cc3)C[C@@H]21 | 16.9%
28 | COc1ccc(C2CCCN2C(=O)c2ccc(=O)n(C)c2)cc1OC (stereo not drawn) | -6.18%
29 | CNCCNc1nccc(-c2cn(C)nc2C)n1 | -5.66%
30 | O=C(C1CCN(c2nc3nc[nH]c(=O)c3s2)CC1)N1CCCCC1 | -15.6%
31 | CCn1ccnc1CN1CCCn2nc(CNC(=O)C3CCC3)cc2C1 | -7.76%
32 | COc1ccccc1C1(CNc2cn[nH]c(=O)c2Cl)CCOCC1 | -13.8%
33 | O=C(NCc1ccccc1)c1nc2c(o1)CN(C(=O)c1cccnc1)C2 | -9%
34 | CCOC(=O)C(C)NC(=O)CCc1ccc(F)cc1 (stereo not drawn) | 1.35%
35 | CC(=O)Nc1nc(C(=O)NCc2ccc(N3CCCCC3)cc2)cs1 | -3.91%
36 | CC1N(CC2CC2)C(=O)COC12CCN(C(=O)c1cnccn1)CC2 (stereo not drawn) | -5.19%
37 | CC(C)COCC1CN(C(=O)c2cscn2)Cc2ncn(C)c21 (stereo not drawn) | -6.45%
38 | COCCN1CCN(Cc2nc3c(s2)CCCC3)[C@H]2CS(=O)(=O)C[C@H]21 | -8.18%
39 | CC(C)Oc1ccc(CNC(=O)CN(C)S(C)(=O)=O)cc1F | -6.43%
40 | CN(C)C(=O)CN1CCOCC2(CCN(CC3CCOC3)CC2)C1 (stereo not drawn) | 15.1%
41 | Cc1noc(CCNC(=O)c2ccc(Br)c(S(=O)(=O)N(C)C)c2)n1 | -4.79%
42 | COc1cc2cc(C(=O)O)n(C)c2c(OC)c1OC | -10.1%
43 | Nc1nnc(C2CC(=O)N(c3ccccc3)C2)s1 (stereo not drawn) | -16.4%
44 | Cc1nc2ccc(Cl)cn2c1CN1CCN(S(=O)(=O)N2CCCC2)CC1 | -4.72%
45 | O=C(NCCNc1cnccn1)C1CCN(C(=O)N2CCCC2)CC1 | 2.17%
46 | COCCN(Cc1ccoc1)S(=O)(=O)c1ccc(F)c(C)c1 | -11%

Row | SMILES | cytotoxicity at 70.5 h
47 | Cc1nc(C)c(C)c(NCCSCc2[nH]cnc2C)n1 | -5.17%
48 | O=C(c1cscn1)N1CC[C@H]2C[C@@H](c3ccncn3)O[C@@H]2C1 | 7.77%
49 | Cc1cn2nc(N3CCN(Cc4nc(C(C)C)no4)CC3)sc2n1 | 19.7%
50 | Cc1cc(CN2CCN(C(=O)NCc3nc(C)cs3)CC2)on1 | -11.7%
51 | Cc1csc2c(=O)n(CCSc3cnn[nH]3)cnc12 | -7.83%
52 | Cn1cnc2c1CCN(Cc1ccc(C(=O)N3CCCC3)cc1)C2 | -3.6%
53 | O=C(CCCOc1cccc(F)c1)N1CCCC(n2cccn2)C1 (stereo not drawn) | -5.07%
54 | COc1cccc2c3c(c(=O)[nH]c12)CC(C)(C)O3 | -6.98%
55 | Cc1cc(C)nc(CCNc2nccc(CCC(F)(F)F)n2)n1 | 8.35%
56 | Cc1cccc(N2CCc3ncnc(C4CC4)c3CC2)n1 | -10.3%
57 | CC(C)CN1CCN(C(=O)Nc2cc(C(F)(F)F)c[nH]c2=O)CC1 | -17.9%
58 | CC(C)CNC(=O)C(C)N1CCN(C2CCN(C(C)C)CC2)CC1 (stereo not drawn) | -12.6%
59 | C=C(C)CN(CC)S(=O)(=O)c1ccccc1C#N | -7.47%
60 | OCCn1cc(CN2CCN(CCOc3ccccc3F)CC2)cn1 | 16.6%
61 | O=C1CC2(CCN(Cc3cccnc3)C2)CN1c1cncnc1 (stereo not drawn) | -2.69%
62 | CC(CC#N)N(C)Cc1ccccc1F (stereo not drawn) | -9.07%
63 | COCC(=O)N1CC[C@H]2C[C@H](c3nc(C)no3)O[C@@H]2C1 | -7.44%
64 | Cc1ccccc1C(NC(=O)NCC1(CO)CC1)C1CC1 (stereo not drawn) | -1.18%
65 | COCC1CC2(CCN(CC3CC3)CC2)CN1c1ncccn1 (stereo not drawn) | -3.59%
66 | N[C@H]1CN(Cc2cnc(N3CCCC3)nc2)C[C@@H]1C1CC1 | -5.36%
67 | c1cnc(N2CCC(c3csc(Nc4cnccn4)n3)CC2)nc1 | 12.4%
68 | CS(=O)(=O)NC[C@]12COC[C@H]1CN(C(=O)c1ccoc1)C2 | -3.34%
69 | COc1ccnc(N2CCN(Cc3ncc(-c4ccccc4)o3)CC2)n1 | 4.14%

Row | SMILES | cytotoxicity at 70.5 h
70 | CN(Cc1ccsc1)C(=O)CN1CCCCC1Cn1cccn1 (stereo not drawn) | -10%
71 | O=C(Nc1ccc(Br)cc1F)c1ccc(N2CCOCC2)nn1 | -6.45%
72 | Cc1ccncc1C(=O)N1CC[C@@]2(O)CCN(C3CCCCC3)C[C@H]2C1 | -3.63%
73 | COC(=O)CNC(=O)N1CCN(c2nc3ccccc3n2C)CC1 | 26.4%
74 | O=C(CCc1ccc2c(c1)OCO2)N1CCCCC1Cn1cccn1 (stereo not drawn) | -8.55%
75 | CC(=O)N[C@@H]1CN(C2CCN(c3cccc(Cl)c3)CC2)C[C@H]1C(C)C | -7.17%
76 | Cc1cnn(CCNCc2csc(-c3ccccc3)n2)c1 | 15.6%
77 | O=C(c1cnc2c(c1)CCC2)N1CCCC(CO)(CC2CC2)C1 (stereo not drawn) | -9.59%
78 | CN(Cc1ccco1)C1CCC12CCN(C(=O)c1ccncc1)CC2 (stereo not drawn) | -5.53%
79 | Cn1ccc(-c2cc(C(=O)N3CCOCC3)c3ccccn23)n1 | 3.83%
80 | CCN(Cc1ccc(C)o1)C(=O)C(C)n1ccnc1C(C)C (stereo not drawn) | -16.9%
81 | N#CCSCCCN1CCN(C(=O)C2CCCC2)CC1 | -5.88%
82 | O=C([C@@H]1CSCN1)N1CCC2(CC1)CNCc1ccccc12 | 3.6%
83 | CCOc1ncccc1NC(=O)NCC(C)O (stereo not drawn) | -3.67%
84 | CCn1ccc(-c2nnc(SCC(=O)NCC(C)C)n2CC)n1 | -10.3%
85 | O=C(NCCc1ccccn1)NC1CCN(c2ncccn2)CC1 | -8%
86 | Cc1cc(CN2CC[C@H]3C(=O)N(c4ccccc4)CCO[C@H]3C2)no1 | 23.6%
87 | CCc1nc(C)ncc1C(=O)N1CC(C)CN(C)c2ccccc21 (stereo not drawn) | -7.55%
88 | COc1ccccc1OCCCN1CC=C(c2cnn(C)c2)CC1 | -2.62%
89 | OC1CCN(C2CCN(c3ccc(Cn4ccnc4)cn3)CC2)CC1 | -17.9%
90 | CC(C)n1cc(CN(Cc2ccc(F)cc2)CC2CCCO2)cn1 (stereo not drawn) | 15.6%
91 | O=C1C(CS(=O)(=O)Nc2ccc(Br)cc2)=NC(=O)n2cccc21 | 2.35%
92 | CCCNC(=O)CNc1ccccc1OCCC(=O)OC | -7.23%

Row | SMILES | cytotoxicity at 70.5 h
93 | CSCCC(C)(O)CNS(=O)(=O)Cc1ccc(F)cc1 (stereo not drawn) | -17%
94 | Cn1ccc2c(-c3cc(N4CCCCC4)ncn3)ccnc21 | 24.9%
95 | CCCNc1ncc(CN2CCOC(Cc3cccc(F)c3)C2)cn1 (stereo not drawn) | -10.7%
96 | C/C=C(/C)C(=O)NS(=O)(=O)c1ccc(Cl)cn1 | -0.512%
97 | CCN1CCOC(CNCc2ccc(OCc3ccccn3)cc2)C1 (stereo not drawn) | -6.17%
98 | CCCC(=O)N1CCC(Cc2ccccc2-c2ccccc2)(C(N)=O)C1 (stereo not drawn) | -6.16%
99 | Cc1nc(CNCC2CCCN2c2cccnn2)no1 (stereo not drawn) | -1.22%
100 | CCOCCn1c(=O)[nH]c2cc(C(=O)N(C)Cc3nc(C)cs3)ccc21 | -12.4%
101 | COc1ccc2[nH]cc(C(=O)N3C[C@@H](O)[C@H](NS(C)(=O)=O)C3)c2c1 | -6.21%
102 | CC(=O)N(C)c1nc(CN2CCCC2Cn2nc(C)cc2C)cs1 (stereo not drawn) | -3.11%
103 | COCCN1CCN(c2cc(OC)ncn2)Cc2ccc(C)nc21 | -10.4%
104 | CCN(c1ccc(C(=O)NCc2cc[nH]n2)cc1)C(C)C | 22.1%
105 | CC(C(=O)NCCCN1CCOCC1)n1cncn1 (stereo not drawn) | 6.37%
106 | COCCNC(=O)[C@H]1C[C@@](CC(C)C)(C(=O)O)N(C)[C@H]1c1cccnc1 | 1.74%
107 | Cc1cnc(N2C(=O)CSC2c2ccc(N(C)C)cc2)s1 (stereo not drawn) | -8.63%
108 | CSc1ccc(NC(=O)NCc2nncn2C2CC2)cc1F | 2.39%
109 | CCn1nc(C)c(CCNC(=O)C2CCCN(C(N)=O)C2)c1C (stereo not drawn) | 19.9%
110 | O=C(CCS(=O)(=O)C1CCCC1)N1CCCC(n2ccnc2)C1 (stereo not drawn) | 6.79%
111 | CCNC(=O)[C@@H]1CCCN1[C@@H](C(=O)NC)C1CC1 | -2.16%
112 | COCCN1CCC2(CC1)CN(C(=O)N(C)C)c1ccc(C)cc12 | 3.45%
113 | COCC1CN(C(=O)Nc2cc(Cl)cc(Cl)c2)CCO1 (stereo not drawn) | -5.22%
